Measured values published in patent US20240417387A1, “SULFONYLPIPERAZINYL COMPOUNDS FOR TREATMENT OF BACTERIAL INFECTIONS” (Hoffmann-La Roche Inc., priority 2021, published 2024).
≈ marks a conversion by molar mass, not a printed value.

Columns and labels:
[1] = Human microsome stability assay; assay type: in vitro ADME; details: human liver microsomes 0.5 mg/mL, 37° C., pH 7.4, NADPH regenerating system
Procedure, shortened: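 Compound […] with 0.5 mg/mL human liver microsomal protein in 100 mM potassium phosphate pH 7.4, 10 min preincubation at 37 °C, started with NADPH regenerating system. Sampled 0–30 min, remaining compound by LC-MS/MS; clearance binned low <7, medium 7–16.2, high >16.2 mL/min/kg.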

[2] = target: Escherichia coli UDP-2,3-diacylglucosamine hydrolase (LpxH) (Escherichia coli (strain K12), UniProt P43341); assay: Enzymatic IC50 assay of Escherichia coli LpxH (UMP/CMP-Glo luminescence); assay type: biochemical; details: Enzymatic IC50 against Escherichia coli LpxH; read-out: IC50 (converted)
Chain of Escherichia coli UDP-2,3-diacylglucosamine hydrolase (LpxH) (P43341 whole entry): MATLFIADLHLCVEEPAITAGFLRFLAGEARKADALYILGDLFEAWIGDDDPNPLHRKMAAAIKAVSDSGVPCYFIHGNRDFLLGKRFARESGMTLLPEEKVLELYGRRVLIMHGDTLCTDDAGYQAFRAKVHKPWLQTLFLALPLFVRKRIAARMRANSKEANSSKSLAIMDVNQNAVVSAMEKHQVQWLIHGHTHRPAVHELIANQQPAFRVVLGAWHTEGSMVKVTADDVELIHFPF
Procedure: The inhibitory potency of compounds of Escherichia coli UDP-2,3-diacylglucosamine hydrolase (LpxH) was determined in an enzymatic assay. UDP-2,3-diacylglucosamine (UDP-DAG) was purified from the Caulobacter crescentus LpxI D225A mutant protein that contained a tightly bound UDP-DAG molecule. The enzyme was diluted using assay buffer containing 50 mM NaCl, 20 mM Tris-HCl pH7.5, 2.5 mM MnCl2, 0.01% Triton X-100.1 mg/mL BSA, and the final concentration is 2 nM. The compounds were diluted by Agilent liquid handler Bravo, the compound's serial dilution dose ranges from 100 μM to 1.7 nM. Then the enzyme and compounds mixture were incubated at room temperature for 10 mins. The enzymatic assay was started by adding UDP-DAG (FAC is 5 μM) and incubated for 20 mins at room temperature. The plate was then heated to 95° C. for 15 mins on a water batch to stop the reaction. The hydrolysis of UDP-DAG by LpxH yielded 2,3-diacylglucosamine 1-phosphate (lipid X) and UMP, which was converted to ATP and quantified by the luciferase reaction using the UMP/CMP-Glo™ Glycosyltransferase Assay kit from Promega. The compound's inhibitory effect of LpxH is determined by measuring the light change using a luminometer (Envision).

[3] = test system: Klebsiella pneumonia ATCC 43816; assay: Minimal Inhibitory Concentration (MIC) broth dilution assay, K. pneumonia ATCC 43816; assay type: cell-based; details: Klebsiella pneumoniae, ATCC43816, 20 hours at 35° C., CAMHB, read-out: MIC K. p ATCC 43816
Procedure, shortened: (§1)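 Broth microdilution with twofold compound series in cation-adjusted Mueller Hinton broth, inoculum 5×10^5 CFU/mL, applied to each strain. Plates incubated 20 h at 35 °C in ambient air. MIC […] recorded as the lowest concentration with no visible growth, read by eye.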

[4] = test system: Escherichia coli BW 25113; assay: Minimal Inhibitory Concentration (MIC) broth dilution assay, E. coli BW 25113; assay type: cell-based; details: Escherichia coli, BW25113, 20 hours at 35° C., CAMHB, read-out: MIC E. coli K-12 BW 25113
Procedure, shortened: as §1

[5] = test system: Escherichia coli ATCC 25922; assay: Minimal Inhibitory Concentration (MIC) broth dilution assay, E. coli ATCC 25922; assay type: cell-based; details: Escherichia coli, ATCC25922, 20 h, read-out: MIC E. coli ATCC 25922
Procedure, shortened: as §1

NCCN1CCN(C(=O)[C@H]2CC[C@H](C(F)(F)c3cc(Cl)nc(N4CCN(S(=O)(=O)c5ccc(N6C[C@H](N)CC6=O)cc5)CC4)c3)CC2)CC1 [Example 013, Trans-(4R)-4-amino-1-[4-[4-[4-[[4-[4-(2-aminoethyl)piperazine-1-carbonyl]cyclohexyl]-difluoro-methyl]-6-chloro-2-pyridyl]piperazin-1-yl]sulfonylphenyl]pyrrolidin-2-one]
Clearance of Human microsome [1]: 6.77 mL/min/kg
IC50 [2]: 4.15 nM
MIC [3]: 1.3 µg/mL (≈ 1.8 µM)
MIC [4]: 2.6 µg/mL (≈ 3.59 µM)
MIC [5]: 2.6 µg/mL (≈ 3.59 µM)

NC(=O)[C@H]1CC[C@H](C(F)(F)c2cc(Cl)nc(N3CCN(S(=O)(=O)c4ccc(N5C[C@H](N)CC5=O)cc4)CC3)c2)CC1 [Example 014]
Clearance of Human microsome [1]: 6.15 mL/min/kg
IC50 [2]: < 3.27 nM
MIC [3]: 1.1 µg/mL (≈ 1.8 µM)
MIC [4]: 1.1 µg/mL (≈ 1.8 µM)
MIC [5]: 1.1 µg/mL (≈ 1.8 µM)

CN(C)CCCNC(=O)c1ccc(C(F)(F)c2cc(Cl)nc(N3CCN(S(=O)(=O)c4ccc(N5C[C@H](N)CC5=O)cc4)CC3)c2)cc1 [Example 020, 4-[[2-chloro-6-[4-[4-[(4R)-4-amino-2-oxo-pyrrolidin-1-yl]phenyl]sulfonylpiperazin-1-yl]-4-pyridyl]-difluoro-methyl]-N-[3-(dimethylamino)propyl]benzamide]
Clearance of Human microsome [1]: 9.48 mL/min/kg
IC50 [2]: 2.9 nM
MIC [3]: 0.72 µg/mL (≈ 1.04 µM)
MIC [4]: 0.72 µg/mL (≈ 1.04 µM)
MIC [5]: 0.72 µg/mL (≈ 1.04 µM)

NCCCNC(=O)c1cnc(C(F)(F)c2cc(Cl)nc(N3CCN(S(=O)(=O)c4ccc(N5C[C@H](N)CC5=O)cc4)CC3)c2)cn1 [Example 021, N-(3-aminopropyl)-5-[[2-chloro-6-[4-[4-[(4R)-4-amino-2-oxo-pyrrolidin-1-yl]phenyl]sulfonylpiperazin-1-yl]-4-pyridyl]-difluoro-methyl]pyrazine-2-carboxamide]
Clearance of Human microsome [1]: 10.85 mL/min/kg
IC50 [2]: 3.01 nM
MIC [3]: 1.8 µg/mL (≈ 2.71 µM)
MIC [4]: 2.2 µg/mL (≈ 3.31 µM)
MIC [5]: 1.3 µg/mL (≈ 1.96 µM)

NCC(O)CNC(=O)c1cnc(C(F)(F)c2cc(Cl)nc(N3CCN(S(=O)(=O)c4ccc(N5C[C@H](N)CC5=O)cc4)CC3)c2)cn1 (stereo partly drawn) [Example 022, N-(3-amino-2-hydroxy-propyl)-5-[[2-chloro-6-[4-[4-[(4R)-4-amino-2-oxo-pyrrolidin-1-yl]phenyl]sulfonylpiperazin-1-yl]-4-pyridyl]-difluoro-methyl]pyrazine-2-carboxamide]
Clearance of Human microsome [1]: 6.15 mL/min/kg
IC50 [2]: 5.88 nM
MIC [3]: 0.71 µg/mL (≈ 1.04 µM)
MIC [4]: 1.4 µg/mL (≈ 2.06 µM)
MIC [5]: 0.71 µg/mL (≈ 1.04 µM)

CN(C)CCCNC(=O)c1cnc(C(F)(F)c2cc(Cl)nc(N3CCN(S(=O)(=O)c4ccc(N5C[C@H](N)CC5=O)cc4)CC3)c2)cn1 [Example 023, 5-[[2-chloro-6-[4-[4-[(4R)-4-amino-2-oxo-pyrrolidin-1-yl]phenyl]sulfonylpiperazin-1-yl]-4-pyridyl]-difluoro-methyl]-N-[3-(dimethylamino)propyl]pyrazine-2-carboxamide]
Clearance of Human microsome [1]: 6.15 mL/min/kg
IC50 [2]: < 2.89 nM
MIC [3]: 2.9 µg/mL (≈ 4.19 µM)
MIC [4]: 1.4 µg/mL (≈ 2.02 µM)
MIC [5]: 1.4 µg/mL (≈ 2.02 µM)

NCCNC(=O)c1cnc(C(F)(F)c2cc(Cl)nc(N3CCN(S(=O)(=O)c4ccc(N5C[C@H](N)CC5=O)cc4)CC3)c2)cn1 [Example 024, N-(2-aminoethyl)-5-[[2-chloro-6-[4-[4-[(4R)-4-amino-2-oxo-pyrrolidin-1-yl]phenyl]sulfonylpiperazin-1-yl]-4-pyridyl]-difluoro-methyl]pyrazine-2-carboxamide]
Clearance of Human microsome [1]: 11.22 mL/min/kg
IC50 [2]: 4.61 nM
MIC [3]: 0.69 µg/mL (≈ 1.06 µM)
MIC [4]: 0.69 µg/mL (≈ 1.06 µM)
MIC [5]: 0.69 µg/mL (≈ 1.06 µM)

NCCCNC(=O)c1ccc(C(F)(F)c2cc(Cl)nc(N3CCN(S(=O)(=O)c4ccc(N5C[C@H](N)CC5=O)cc4)CC3)c2)nc1 [Example 026, N-(3-aminopropyl)-6-[[2-chloro-6-[4-[4-[(4R)-4-amino-2-oxo-pyrrolidin-1-yl]phenyl]sulfonylpiperazin-1-yl]-4-pyridyl]-difluoro-methyl]pyridine-3-carboxamide]
Clearance of Human microsome [1]: 6.15 mL/min/kg
IC50 [2]: 10.6 nM
MIC [3]: 0.78 µg/mL (≈ 1.18 µM)
MIC [4]: 0.78 µg/mL (≈ 1.18 µM)
MIC [5]: 0.78 µg/mL (≈ 1.18 µM)
